This assay addresses T1, FXR LBD, GST (Homo sapiens, UniProt Q96RI1).
T1 construct: FXR LBD, GST; purchased Invitrogen PV4834
T1 sequence (Q96RI1 262-486 limits assumed): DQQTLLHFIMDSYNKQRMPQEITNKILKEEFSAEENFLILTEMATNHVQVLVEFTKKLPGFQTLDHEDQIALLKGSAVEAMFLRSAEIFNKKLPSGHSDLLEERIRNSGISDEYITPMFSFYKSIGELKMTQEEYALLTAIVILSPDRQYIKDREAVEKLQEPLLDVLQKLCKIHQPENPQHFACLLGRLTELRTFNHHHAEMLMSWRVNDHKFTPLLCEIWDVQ
The assay can be described thus: FXR Binding Assay (TR-FRET, Fluorescein-SRC2-2 coactivator peptide). Particulars: for Emax / Pct Effect (Emax %): % Activity relative to positive control; for Emax: read-out: Pct Effect (Emax %); for pEC50: TR-FRET FXR LBD coactivator recruitment. How it is done:
The interaction between the present compounds and FXR are evaluated by Time-Resolved Fluorescence Resonance Energy Transfer (TR-FRET) competition assay. FRET describes a radiation-free energy transfer between two chromophores: a donor fluorophore in its excited state can transfer energy to an acceptor fluorophore in close proximity (typically <10 nm). In contrast to standard FRET, TR-FRET unites time-resolved fluorescence (TRF) and the FRET principle, TRF use a long-lifetime lanthanide chelate as the donor species, while lanthanide chelates are unique in that their excited-state lifetime can be on the order of a millisecond or longer. Suitable neighbors for FRET are known in the art and can be obtained.
The assay was performed in following steps: first, prepared a) 1 mM compounds (100×) in DMSO; b) reaction buffer containing 1× buffer G with 10 mM DTT; c) 4×FXR LBD (20 nM) in 1× chilled buffer G. Second, performed 3-fold serial dilution of 1 mM test compounds using DMSO from 1 mM, 10 doses in a 96-well plate (249944, Nunc). Then, used complete buffer G to dilute each 100× compounds serial dilution to 2×. Third, added 10 μl 2× compound serial dilution into 384-well plate (3677, Corning). Then, added 5 μl FXR LBD into the assay plate. Prepared a solution containing 2 μM fluorescein-SRC2-2 (4×) and 20 nM Tb anti-GST antibody (4×) in buffer G at room temperature and started the reaction by adding 5 μl the above solution into each well of the assay plate. Centrifuged the assay plates at 1000 g for 1 min and then incubated at room temperature for lhr protected from light. Finally, the plate was read at wavelengths of 520 nm and 495 nm on Envision 2104 plate reader (PerkinElmer).
A ratio (Ratio520 nm/495 nm−Ratiobackground) was calculated for each well. The activity ratio was calculated as follow: […]
Ratiopositive: The average ratio for the positive control across the plate.
Ratiovehicle: The average ratio for negative controls across the plate.
EC50 was calculated by fitting % Activity values and log of compound concentrations to nonlinear regression (dose response-variable slope) with GraphPad 5.0.
X: log of compound concentration.
Background: TR-FRET usually uses a lanthanide donor and a delayed reading to cut background.

pEC50: −log10 of the molar value.

Take `Cn1cc(C(=O)O)c2ccc(N3CCN(CCc4c(-c5ccccc5Cl)noc4C4CC4)CC3)cc21` [Example I9, 6-(4-(2-(3-(2-chlorophenyl)-5-cyclopropylisoxazol-4-yl)ethyl)piperazin-1-yl)-1-methyl-1H-indole-3-carboxylic Acid]: the Emax stood at 206% and the pEC50 was 5.91.

Turning to `Cn1cc(C(=O)O)c2ccc(N3CCN(CCc4c(-c5c(F)cccc5F)noc4C4CC4)CC3)cc21` [Example I11, 6-(4-(2-(5-cyclopropyl-3-(2,6-difluorophenyl)isoxazol-4-yl)ethyl)piperazin-1-yl)-1-methyl-1H-indole-3-carboxylic Acid], the pEC50 was 5.79.

Regarding `CC1CN(CCc2c(-c3c(Cl)cccc3Cl)noc2C2CC2)CCN1c1ccc(CC(=O)O)cc1` (stereo not drawn) [Example I13, 2-(4-(4-(2-(5-cyclopropyl-3-(2,6-dichlorophenyl)isoxazol-4-yl)ethyl)-2-methylpiperazin-1-yl)phenyl)acetic Acid], the Emax turned out to be 34.9% and the negative logarithm of the EC50 (pEC50) is 5.82.

In turn, `Cn1cc(C(=O)O)c2ccc(N3CCN(CCc4c(-c5ccc(Cl)cc5Cl)noc4C4CC4)CC3)cc21` [Example I16, 6-(4-(2-(5-cyclopropyl-3-(2,4-dichlorophenyl)isoxazol-4-yl)ethyl)piperazin-1-yl)-1-methyl-1H-indole-3-carboxylic Acid] had a pEC50 below 5.00.

On to `Cn1cc(C(=O)O)c2ccc(N3CCN(CCc4c(-c5ccccc5F)noc4C4CC4)CC3)cc21` [Example I19, 6-(4-(2-(5-cyclopropyl-3-(2-fluorophenyl)isoxazol-4-yl)ethyl)piperazin-1-yl)-1-methyl-1H-indole-3-carboxylic Acid], for which the maximal effect (Emax) came to 104% and the pEC50 was 5.36.

Consider `CC(Cc1c(-c2c(Cl)cccc2Cl)noc1C1CC1)N1CCN(c2ccc3c(C(=O)O)cn(C)c3c2)CC1` (stereo not drawn) [Example I23, 6-(4-(1-(5-cyclopropyl-3-(2,6-dichlorophenyl)isoxazol-4-yl)propan-2-yl)piperazin-1-yl)-1-methyl-1H-indole-3-carboxylic Acid], for which the Emax is 35.7% and the pEC50 was 5.86.

In the case of `Cn1cc(C(=O)O)c2ccc(N3C[C@H]4C[C@@H]3CN4CCc3c(-c4c(Cl)cccc4Cl)noc3C3CC3)cc21` [Example I28, 6-((1R,4R)-5-(2-(5-cyclopropyl-3-(2,6-dichlorophenyl)isoxazol-4-yl)ethyl)-2,5-diazabicyclo[2.2.1]heptan-2-yl)-1-methyl-1H-indole-3-carboxylic Acid], the Emax is 132% and the negative logarithm of the EC50 (pEC50) was 5.87.

Take `Cn1cc(C(=O)O)c2ccc(N3CC4CC3CN4CCc3c(-c4c(Cl)cccc4Cl)noc3C3CC3)cc21` (stereo not drawn) [Example I29, 6-(5-(2-(5-cyclopropyl-3-(2,6-dichlorophenyl)isoxazol-4-yl)ethyl)-2,5-diazabicyclo[2.2.1]heptan-2-yl)-1-methyl-1H-indole-3-carboxylic Acid]: the “Pct Effect (Emax %)” value is 68.08% and the pEC50 is 5.42.

Consider `O=C(O)c1cc(F)c2nc(N3C4CCC3CN(CCc3c(-c5c(Cl)cccc5Cl)noc3C3CC3)C4)sc2c1` [Example I31, 2-(3-(2-(5-cyclopropyl-3-(2,6-dichlorophenyl)isoxazol-4-yl)ethyl)-3,8-diazabicyclo[3.2.1]octan-8-yl)-4-fluorobenzo[d]thiazole-6-carboxylic Acid], for which the Emax stood at 45.1% and the pEC50 is 7.39.

On to `O=C(O)c1cc(F)c2nc(N3C4CCC3CN(CCc3c(-c5ccccc5OC(F)(F)F)noc3C3CC3)C4)sc2c1` [Example I32, 2-(3-(2-(5-cyclopropyl-3-(2-(trifluoromethoxy)phenyl)isoxazol-4-yl)ethyl)-3,8-diazabicyclo[3.2.1]octan-8-yl)-4-fluorobenzo[d]thiazole-6-carboxylic Acid], for which the Emax turned out to be 47.7% and the pEC50 was 6.89.

`O=C(O)c1ccc2nc(N3C4CCC3CN(CCc3c(-c5c(Cl)cccc5Cl)noc3C3CC3)C4)sc2c1` [Example I33, 2-(3-(2-(5-cyclopropyl-3-(2,6-dichlorophenyl)isoxazol-4-yl)ethyl)-3,8-diazabicyclo[3.2.1]octan-8-yl)benzo[d]thiazole-6-carboxylic Acid]: the Emax was 43.3% and the pEC50 is 7.01.

For the molecule `O=C(O)c1ccc2nc(N3C4CCC3CN(CCc3c(-c5ccccc5OC(F)(F)F)noc3C3CC3)C4)sc2c1` [Example I34, 2-(3-(2-(5-cyclopropyl-3-(2-(trifluoromethoxy)phenyl)isoxazol-4-yl)ethyl)-3,8-diazabicyclo[3.2.1]octan-8-yl)benzo[d]thiazole-6-carboxylic Acid], the Emax is 41.5% and the pEC50 was 6.63.

Take `C[C@H]1CN(CCc2c(-c3c(Cl)cccc3Cl)noc2C2CC2)CCN1c1ccc2c(C(=O)O)cn(C)c2c1` [Example I39, (S)-6-(4-(2-(5-cyclopropyl-3-(2,6-dichlorophenyl)isoxazol-4-yl)ethyl)-2-methylpiperazin-1-yl)-1-methyl-1H-indole-3-carboxylic Acid]: the Emax turned out to be 129% and the pEC50 was 6.82.

As for `Cn1cc(C(=O)O)c2ccc(N3CC4CCC(C3)N4CCc3c(-c4c(Cl)cccc4Cl)noc3C3CC3)cc21` [Example I41, 6-(8-(2-(5-cyclopropyl-3-(2,6-dichlorophenyl)isoxazol-4-yl)ethyl)-3,8-diazabicyclo[3.2.1]octan-3-yl)-1-methyl-1H-indole-3-carboxylic Acid], the Emax came to 158% and the pEC50 was 6.70.

As to `C[C@@H]1CN(CCc2c(-c3c(Cl)cccc3Cl)noc2C2CC2)C[C@H](C)N1c1ccc2c(C(=O)O)cn(C)c2c1` [Example I43, 6-((2S,6R)-4-(2-(5-cyclopropyl-3-(2,6-dichlorophenyl)isoxazol-4-yl)ethyl)-2,6-dimethylpiperazin-1-yl)-1-methyl-1H-indole-3-carboxylic Acid], the Emax was found to be 110% and the pEC50 is 5.85.

Consider `C[C@@H]1CN(CCc2c(-c3c(Cl)cccc3Cl)noc2C2CC2)C[C@@H](C)N1c1ccc2c(C(=O)O)cn(C)c2c1` [Example I44, 6-((2R,6R)-4-(2-(5-cyclopropyl-3-(2,6-dichlorophenyl)isoxazol-4-yl)ethyl)-2,6-dimethylpiperazin-1-yl)-1-methyl-1H-indole-3-carboxylic Acid], for which the Emax worked out at 73.5% and the pEC50 was 6.40.

As to `Cn1cc(C(=O)O)c2c(F)cc(N3CCN(CCc4c(-c5c(Cl)cccc5Cl)noc4C4CC4)CC3)cc21` [Example I46, 6-(4-(2-(5-cyclopropyl-3-(2,6-dichlorophenyl)isoxazol-4-yl)ethyl)piperazin-1-yl)-4-fluoro-1-methyl-1H-indole-3-carboxylic Acid], the Emax is 168% and the pEC50 was 6.83.

With `Cn1cc(C(=O)O)c2ccc(N3CC4CC3CN4CCc3c(-c4c(Cl)cccc4Cl)noc3C3CC3)cc21` (stereo not drawn) [Example I48, 6-(5-(2-(5-cyclopropyl-3-(2,6-dichlorophenyl)isoxazol-4-yl)ethyl)-2,5-diazabicyclo[2.2.1]heptan-2-yl)-1-methyl-1H-indole-3-carboxylic Acid], the “Pct Effect (Emax %)” value is reported as 124.90% and the pEC50 was 5.76.

With `Cn1cc(C(=O)O)c2ccc(N3CC4CC(C3)N4CCc3c(-c4c(Cl)cccc4Cl)noc3C3CC3)cc21` [Example I49, 6-(6-(2-(5-cyclopropyl-3-(2,6-dichlorophenyl)isoxazol-4-yl)ethyl)-3,6-diazabicyclo[3.1.1]heptan-3-yl)-1-methyl-1H-indole-3-carboxylic Acid], the pEC50 is below 5.00.

Take `CC1CN(CCc2c(-c3c(Cl)cccc3Cl)noc2C2CC2)CCN1c1ccc2nc(C(=O)O)ccc2c1` (stereo not drawn) [Example I51, 6-(4-(2-(5-cyclopropyl-3-(2,6-dichlorophenyl)isoxazol-4-yl)ethyl)-2-methylpiperazin-1-yl)quinoline-2-carboxylic Acid]: the maximum response (Emax) turned out to be 96.5% and the pEC50 was 7.13.

For the molecule `CC1CN(c2ccc3nc(C(=O)O)ccc3c2)CCN1CCc1c(-c2c(Cl)cccc2Cl)noc1C1CC1` (stereo not drawn) [Example I52, 6-(4-(2-(5-cyclopropyl-3-(2,6-dichlorophenyl)isoxazol-4-yl)ethyl)-3-methylpiperazin-1-yl)quinoline-2-carboxylic Acid], the Emax is 121% and the negative logarithm of the EC50 (pEC50) was 6.68.

By Emax is commonly meant the maximal effect, on the per cent scale that the assay sets. Usually pEC50 stands for the negative decadic logarithm of the EC50, by convention in mol/L. The low end stands for a large EC50, the high end for a small EC50.

(Values after patent US20220227745A1, “Compounds For Modulating FXR” (NANJING RUIJIE PHARMA TECH CO., LTD., priority 2019, published 2022).)
